Results from patent US6509348B1, “Combination of an ADP-receptor blocking antiplatelet drug and a thromboxane A2 receptor antagonist and a method for inhibiting thrombus formation employing such combination” (Bristol-Myers Squibb Company, priority 1998, dated 2003).
Entries after “also recorded” stand apart in the source; their conditions may differ. Where two headings read alike, the source gives them in different places.

Experiments:
[1] = tested on: vessel injury-induced venous thrombosis; experiment: FeCl2 vessel injury-induced vena cava thrombosis in rats; format: in vivo, rat
Procedure: Thrombosis Procedure. Male Sprague Dawley rats (350-450 g) were anesthetized with sodium pentobarbital (50 mg/kg i.p.). A jugular vein was cannulated for drug infusion or anesthetic supplementation, and the trachea was intubated to ensure airway patency. The vena cava was isolated by a midline abdominal incision and cleared of connective tissue. A fiberoptic probe (model P-433-10, 0.8 mm tip diameter) was placed on the dorsal surface of the vena cava distal to the renal veins and attached to a laser doppler blood perfusion monitor (model BPM 430-2, Vasamedics, St. Paul, Minn.). When baseline flow had stabilized, a 2 mm×5 mm strip of filter paper was saturated in 15% FeCl2 and placed on the vena cava downstream from the flow probe for 1 min. The vena cava was dissected free 60 min after filter paper application and opened lengthwise. The thrombus was removed to determine wet and dry thrombus weights on a Sartorius R-160P balance (Brinkmann Instruments Inc., Westbury, N.Y.). Blood flow was monitored on an R-611 physiological recorder (Sensor Medics, Anaheim, Calif.). Total blood flow was calculated by planimetry and normalized as percent of baseline flow (0 min=100%) over 60 min.
(§1) Drug treatments. There were 3 separate studies. In the first study rats were dosed once daily for 3 days with an oral gavage of either saline (n=6) or clopidogrel 3 (n=5), 10 (n=5), 20 (n=4) mg/kg). One hour after the last dose, rats were anethetized for the thrombosis protocol or blood was obtained for ex vivo testing of platelet function and whole blood coagulation. In the second study a continuous i.v. infusion of either saline or ifetroban (150 μg/kg/min) was administered starting 15 min before FeCl2-induced injury of the vena cava. In the third study, rats were treated with saline or clopidogrel (2 mg/kg per day for 3 days) and administered either saline or ifetroban (150 μg/kg/min) starting 15 min before FeCl2 application.

[2] = target: T1, rat platelet thromboxane A2 receptors (Rattus norvegicus, UniProt P34978); conditions: dose used (150 μg/kg/min); Schumacher et al. 1993; cited from earlier work
T1 construct: rat platelet thromboxane A2 receptors; host or cells: rat platelets (endogenous)
T1 sequence (P34978 1-341): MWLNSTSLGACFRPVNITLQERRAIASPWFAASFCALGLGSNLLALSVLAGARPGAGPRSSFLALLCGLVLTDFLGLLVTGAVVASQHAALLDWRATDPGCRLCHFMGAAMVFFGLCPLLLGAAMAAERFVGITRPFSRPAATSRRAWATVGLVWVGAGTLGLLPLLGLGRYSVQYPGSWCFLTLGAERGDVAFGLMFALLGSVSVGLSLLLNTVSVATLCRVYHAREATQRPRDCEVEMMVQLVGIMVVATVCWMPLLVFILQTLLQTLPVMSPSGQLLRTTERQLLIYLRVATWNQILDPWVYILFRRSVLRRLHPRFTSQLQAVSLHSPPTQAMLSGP

[3] = tested on: stasis-induced vena cava thrombosis; experiment: Stasis-induced (uncomplicated) vena cava thrombosis; format: in vivo, rat
[4] = tested on: stasis-induced vena cava thrombosis; conditions: cited from earlier work
[5] = tested on: vessel injury-induced venous thrombosis; conditions: cited from earlier work; for activity in vessel injury-induced venous thrombosis model: aspirin, previous experiments
[6] = tested on: ADP-induced platelet aggregation; experiment: animal or person
Procedure: (§2) Ex Vivo Platelet Function and Coagulation Testing. Male Sprague Dawley rats (350-450 g) were anesthetized with sodium pentobarbital (50 mg/kg i.p.) The vena cava was isolated by a midline abdominal incision and 5 to 8 ml of blood was withdrawn into a 1/10th volume of 3.8% Na citrate. A portion of each blood sample was centrifuged for 3 sec in a Microcentrifuge E (Beckman, Palo Alto, Calif., USA) to prepare platelet rich plasma (PRP) and for 3 min to prepare platelet poor plasma (PPP). The PRP was adjusted to a count of ˜450×10^3 platelets per […] by adding PPP.
Platelet aggregation responses of PRP to ADP (1,3 and 10 μM; Chrono-Log Corp., Havertown, Pa., USA) were determined using the photometric technique described for a model 540 aggregometer (Chrono-Log Corp.).
as §1

whole blood coagulation = conditions: clopidogrel orally once daily for 3 days
Procedure: as §2, §1

[7] = tested on: carotid artery thrombosis; conditions: clopidogrel 10 mg/kg

CCCCCNC(=O)c1coc(C2C3CCC(O3)C2Cc2ccccc2CCC(=O)O)n1 (stereo not drawn) [ifetroban, [1S-(1α,2α,3α,4α)]-2-[[3-[4-[(pentylamino)carbonyl]-2-oxazolyl]-7-oxabicyclo[2.2.1]hept-2-yl]methyl]benzenepropanoic acid]
effect on thrombus formation ([1]; ifetroban alone, 150 μg/kg/min i.v. infusion from 15 min before FeCl2): inactive; also recorded: no significant effect; also recorded: failure; also recorded: not effective | effect on thrombus formation ([1]; ifetroban alone, 150 μg/kg/min i.v. infusion from 15 min before FeCl2, listed as Ifetroban): failed to inhibit thrombosis | block of rat platelet thromboxane A2 receptors [2]: ≥ 99% | efficacy in uncomplicated venous thrombosis model ([3]; ifetroban alone): effective; also recorded: intermediate efficacy

CC(=O)Oc1ccccc1C(=O)O [aspirin]
activity in uncomplicated venous thrombosis model ([4]; aspirin): inactive | activity in vessel injury-induced venous thrombosis model [5]: failure; also recorded: failed to inhibit thrombosis | activity in vessel injury-induced venous thrombosis model ([5]; listed as Aspirin): inactive

CC(=O)CC(c1ccccc1)c1c(O)c2ccccc2oc1=O (stereo not drawn) [warfarin]
PT ratio (INR) ([4]; at dose giving ≧75% inhibition of stasis-induced thrombosis): 2.2 | INR ([5]; at higher dose needed for comparable inhibition of vessel injury-induced venous thrombosis): 9.5

COC(=O)[C@H](c1ccccc1Cl)N1CCc2sccc2C1 [clopidogrel, methyl (4)-(S)-α-(o-chlorophenyl)-6,7-dihydrothieno[3,2-c]pyridine-5-acetate]
effect on thrombus formation ([1]; clopidogrel 2 mg/kg per day for 3 days): not sufficient to inhibit thrombus formation; also recorded: no effect | decrease in thrombus weight ([1]; clopidogrel 3 mg/kg orally once daily for 3 days): 46% | antithrombotic activity ([1]; clopidogrel 10 mg/kg): good activity | decrease in thrombus weight ([1]; clopidogrel 10 mg/kg orally once daily for 3 days): 72% | decrease in thrombus weight ([1]; clopidogrel 20 mg/kg orally once daily for 3 days): 84% | inhibition at 20 mg/kg ([6]; Rattus norvegicus, Platelet, 72 h, read-out: inhibition of ADP-induced aggregation): 86% | inhibition at 10 mg/kg ([6]; Rattus norvegicus, Platelet, 72 h, read-out: inhibition of ex vivo platelet aggregation): 50% | platelet shape change response to ADP ([6]; clopidogrel 20 mg/kg daily for 3 days): unaffected | ex vivo whole blood coagulation tests (whole blood coagulation): unaffected | antithrombotic activity ([3]; clopidogrel 10 mg/kg): good activity | antithrombotic efficacy compared across the thrombosis models ([3]; dose-dependent comparison of three rat models): least effective | antithrombotic activity [7]: good activity
